Measurements as given in patent publication US9170257B2 (priority 2012, dated 2015).
Where two headings read alike, the source gives them in different places.

Tests used:
[1] = Plasma pharmacokinetics of curcumin and THC during and after intravenous infusion of liposomal curcumin; format: in vivo, Beagle dogs
Method: (§1) The results and analysis for the study are presented for intravenous infusion dosing of a total dose of 10 mg/kg infused over a period of either 2 or 8 hours. Plasma levels of curcumin and its metabolite, THC were measured at timed intervals post-dosing.
For the 2 hour infusion, blood samples were taken at predose and 0.25, 0.5, 1.5 and at 2 hours during infusion and at 15 minutes post-infusion. For the 8 hour infusion, blood samples were taken at predose and 0.25, 0.5, 1.5, […] and at 8 hours during infusion and at 15 minutes post-infusion.
(§2) Bioanalysis was performed on two sets of samples, one set that was treated with phosphoric acid and one set that was not treated with phosphoric acid. […] Values that were below the limit of quantification were assigned a value of 0.
Plasma concentration vs. time profiles were analyzed using (unless otherwise stated) the data from 4 dogs. Plasma profiles for the test articles are presented as the mean data±SE of 4 dogs. Average plasma concentrations were used to perform the PK analysis. Plasma concentration vs. time profiles were analyzed and the PK parameters estimated using WinNonlin Version 5.2.1 employing the intravenous infusion model with first order elimination. Unless stated otherwise, the plasma concentration-time profiles for the test articles are presented as the mean data±SE of 4 dogs.

[2] = Plasma, urine and bile levels of curcumin and THC 15 minutes post-infusion; format: in vivo, Beagle dogs; conditions: for Plasma level / concentration at 15 min: mean±SE; for concentration at 15 min / Kp: both sexes, dog, in vivo, 10 mg/kg; for concentration at 15 min: Beagle; for Kp: beagle
Method: as §1, §2
Fifteen minutes following either the 2 hour or 8 hour infusion, blood, urine and bile samples were taken, prior to the dogs being necropsied and organs removed for the isolation of tissues. Multiple samples of tissue weighing approximately 1 gram were removed and snap frozen in the presence or absence of phosphoric acid (H3PO4). For all tissue samples, the levels of curcumin and THC were determined using a method developed by the Bioanalytical Department at Nucro-Technics. […] Values that were below the limit of quantification were assigned a value of 0. […] Tissue distribution data was analyzed using, unless stated, the data from 4 dogs and are presented as the mean±standard error (S.E.).

[3] = Bench stability in Phase 1 human plasma samples; format: in vitro ADME; conditions: human plasma with Na-phosphate, room temperature, a couple of hours
Method: After the addition of 50 μl 5% H3PO4 to 950 ml plasma the pH was 4.4.

[4] = both sexes, Beagle, dog, in vivo, 10 mg/kg, 1.25 mg/kg/hr, mean±SE, read-out: [Plasma + PO4]
[5] = both sexes, Beagle, dog, in vivo, 10 mg/kg, 1.25 mg/kg/hr, mean±SE, read-out: [Plasma]
[6] = both sexes, Beagle, dog, in vivo, 10 mg/kg, 5 mg/kg/hr, mean±SE, read-out: [Plasma + PO4]
[7] = both sexes, Beagle, dog, in vivo, 10 mg/kg, 5 mg/kg/hr, mean±SE, read-out: [Plasma]

## COc1cc(CCC(=O)CC(=O)CCc2ccc(O)c(OC)c2)ccc1O [THC, tetrahydrocurcumin]
[1]; 2 hour i.v. infusion, total dose 10 mg/kg, fitted
  Ke: 1.4 h⁻¹
[1]; 2 hour infusion
  ratio of THC to curcumin based on AUC: 9.6
[1]; 8 hour infusion
  ratio of THC to curcumin based on AUC: 6.3
[1]; at both infusion rates (2 and 8 hours)
  Plasma THC levels higher than curcumin: 6.3-9.6 fold
[1]; [4]
  concentration at 15 min: 59 ± 24 ng/mL
  concentration at 30 min: 121 ± 28 ng/mL
  concentration at 90 min: 293 ± 73 ng/mL
  concentration at 2 hr: 226 ± 64 ng/mL
  concentration at 4 hr: 193 ± 127 ng/mL
  concentration at 6 hr: 64 ± 10 ng/mL
  concentration at 8 hr: 62 ± 26 ng/mL
[1]; [5]
  concentration at 15 min: 72 ± 15 ng/mL
  concentration at 30 min: 63 ± 15 ng/mL
  concentration at 90 min: 64 ± 14 ng/mL
  concentration at 2 hr: 68 ± 11 ng/mL
  concentration at 4 hr: 77 ± 8 ng/mL
  concentration at 6 hr: 0 ng/mL
  concentration at 8 hr: 67 ± 29 ng/mL
[1]; [6]
  concentration at 15 min: 284 ± 89 ng/mL
  concentration at 30 min: 1120 ± 318 ng/mL
  concentration at 90 min: 2350 ± 441 ng/mL
[1]; [7]
  concentration at 15 min: 483 ± 50 ng/mL
  concentration at 30 min: 566 ± 77 ng/mL
  concentration at 90 min: 891 ± 238 ng/mL
  concentration at 2 hr: 454 ± 79 ng/mL
[1]; both sexes, Beagle, dog, in vivo, iv, 10 mg/kg, 2 hr infusion + phosphate, AUC to 15 min post-infusion, read-out: AUC
  AUC: 3800 ng·h/mL
[1]; both sexes, Beagle, dog, in vivo, iv, 10 mg/kg, 8 hr infusion + Phosphate, AUC to 15 min post-infusion, read-out: AUC
  AUC: 1170 ng·h/mL
[1]; both sexes, Beagle, dog, in vivo, iv, 10 mg/kg, 8 hr infusion, 10 mg/kg, plasma without phosphoric acid, AUC to 15 min post-infusion, read-out: AUC
  AUC: 411 ng·h/mL
[1]; both sexes, Beagle, dog, in vivo, iv, 10 mg/kg, 8 hr infusion, plasma without phosphoric acid, observed, read-out: Cmax
  Cmax: 77 ng/mL
[1]; both sexes, beagle, dog, in vivo, 10 mg/kg, 5 mg/kg/hr, 2 hr (end of infusion), mean±SE, read-out: [Plasma + PO4]
  concentration at 2 h: 2980 ± 852 ng/mL
[1]; both sexes, beagle, dog, in vivo, iv, 10 mg/kg, 2 hour i.v. infusion, total dose 10 mg/kg, fitted, first-order elimination infusion model, read-out: AUC (estimated PK parameter)
  AUC: 5180 ng·h/mL
[1]; both sexes, beagle, dog, in vivo, iv, 10 mg/kg, 2 hour i.v. infusion, total dose 10 mg/kg, fitted, first-order elimination infusion model, read-out: Cmax (estimated PK parameter)
  Cmax: 2430 ng/mL
[1]; both sexes, beagle, dog, in vivo, iv, 10 mg/kg, 2 hour infusion, + phosphoric acid, read-out: calculated AUC (observed)
  AUC: 3800 ng·h/mL
[1]; both sexes, beagle, dog, in vivo, iv, 10 mg/kg, 2 hr infusion + phosphate, observed, read-out: Cmax
  Cmax: 2980 ng/mL
[1]; both sexes, beagle, dog, in vivo, iv, 10 mg/kg, 2 hr infusion, 10 mg/kg, plasma without phosphoric acid, AUC to 15 min post-infusion, read-out: AUC
  AUC: 1320 ng·h/mL
[1]; both sexes, beagle, dog, in vivo, iv, 10 mg/kg, 2 hr infusion, plasma without phosphoric acid, observed, read-out: Cmax
  Cmax: 891 ng/mL
[1]; both sexes, beagle, dog, in vivo, iv, 10 mg/kg, 8 hr infusion + Phosphate, observed, read-out: Cmax
  Cmax: 293 ng/mL
[1]; both sexes, beagle, dog, in vivo, iv, 2 hour i.v. infusion, total dose 10 mg/kg, fitted, read-out: MRT
  MRT: 42 min
[1]; both sexes, beagle, dog, in vivo, iv, 2 hour i.v. infusion, total dose 10 mg/kg, fitted, read-out: t1/2(e) (converted)
  half-life: 30 min
[1]; two infusion rates
  ratio of plasma THC to curcumin: 6.3-9.6
[2]; 15 min after 2 hour infusion, + H3PO4
  Plasma level: 1167 ± 379 ng/mL
[2]; 15 min after 8 hour infusion, no H3PO4
  Plasma level: 20 ± 4^2 ng/mL
[2]; 15 min after 2 hour infusion, + H3PO4, read-out: Bile level
  concentration at 15 min: 391 ± 197 ng/mL
[2]; 15 min after 2 hour infusion, + H3PO4, read-out: Urine level
  concentration at 15 min: 3590 ± 1080 ng/mL
[2]; 15 min after 2 hour infusion, no H3PO4, read-out: Bile level
  concentration at 15 min: 187 ± 74 ng/mL
[2]; 15 min after 2 hour infusion, no H3PO4, read-out: Plasma level
  concentration at 15 min: 38 ± 4 ng/mL
[2]; 15 min after 2 hour infusion, no H3PO4, read-out: Urine level
  concentration at 15 min: 6420 ± 1450 ng/mL
[2]; 15 min after 8 hour infusion, + H3PO4, read-out: Bile level
  concentration at 15 min: 168 ± 53 ng/mL
[2]; 15 min after 8 hour infusion, + H3PO4, read-out: Plasma level
  concentration at 15 min: 142 ± 122 ng/mL
[2]; 15 min after 8 hour infusion, + H3PO4, read-out: Urine level
  concentration at 15 min: 621 ± 206 ng/mL
[2]; 15 min after 8 hour infusion, no H3PO4, read-out: Bile level
  concentration at 15 min: 84 ± 12 ng/mL
[2]; 15 min after 8 hour infusion, no H3PO4, read-out: Urine level
  concentration at 15 min: 2450 ± 84 ng/mL
[2]; higher infusion rate (5 mg/kg/hr), read-out: bile to plasma concentration ratio
  Kp: 1.2
[2]; higher infusion rate (5 mg/kg/hr), read-out: urine to plasma concentration ratio
  Kp: 4.4
[2]; low infusion rate (1.25 mg/kg/hr), read-out: bile to plasma concentration ratio
  Kp: 0.3
[2]; low infusion rate (1.25 mg/kg/hr), read-out: urine to plasma concentration ratio
  Kp: 3.1
[3]
  bench stability: minimal
